According to patent publication US20130225548A1, “Pyridine Derivative and Medicinal Agent” (NIPPON SHINYAKU CO., LTD., priority 2010, published 2013):
Where a name gives a salt, the structure may show the parent alone.

Target: T1, Syk tyrosine kinase (Homo sapiens, UniProt P43405)
T1 construct: purchased Carna Biosciences, Inc
Test: Test for Syk tyrosine kinase inhibitory activity (ELISA)
Type: biochemical
Settings: Syk tyrosine kinase (Carna Biosciences), 25 μM ATP in substrate solution, 30° C. 1 hour, n=2; read-out: Evaluation (IC50, concentration inhibiting the tyrosine kinase activity at 50%)
Outline: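 Syk kinase (0.025 nM stock before addition) with 625 nM biotinylated peptide and 25 μM ATP (substrate-solution levels) in Tris pH 7.5, MgCl2, DTT; 1 h at 30 °C on streptavidin plates. Phosphotyrosine detected by HRP anti-pTyr antibody, TMB, A450; IC50 by non-linear regression.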

Question: Which IC50 does the source give for `N#Cc1ccnc(Nc2cc(C3CC3)cc(-c3cncc(CN4CCS(=O)(=O)CC4)c3)n2)c1` [Example 74, 2-({4-cyclopropyl-5′-[(1,1-dioxidethiomorpholin-4-yl)methyl]-2,3′-bipyridin-6-yl}amino)pyridine-4-carbonitrile hydrochloride] here?
Answer: 5 to 50 nM

Question: Which IC50 does the source give for `N#Cc1ccnc(Nc2cc(C3CC3)cc(-c3cncc(CN4CCCN(C(N)=O)CC4)c3)n2)c1` [Example 75, 4-({6-[(4-cyanopyridin-2-yl)amino]-4-cyclopropyl-2,3′-bipyridin-5′yl}methyl)-1,4-diazepane-1-carboxamide hydrochloride] here?
Answer: 5 to 50 nM

Question: `N#Cc1ccnc(Nc2cc(C3CC3)cc(-c3ccnc(N4CCCN(C(N)=O)CC4)c3)n2)c1` [Example 76, 4-{6-[(4-cyanopyridin-2-yl)amino]-4-cyclopropyl-2,4′-bipyridin-2′-yl}-1,4-diazepane-1-carboxamide hydrochloride] was tested. Which IC50 did it give?
Answer: 5 to 50 nM

Question: With `N#Cc1ccnc(Nc2cc(C3CC3)cc(-c3cncc(NC4CCN(C(N)=O)CC4)c3)n2)c1` [Example 77, 4-({6-[(4-cyanopyridin-2-yl)amino]-4-cyclopropyl-2,3′-bipyridin-5′-yl}amino)piperidine-1-carboxamide hydrochloride] as the molecule, how does the IC50 read?
Answer: 5 to 50 nM

Question: Which IC50 does the source give for `N#Cc1ccnc(Nc2cc(C3CC3)cc(-c3cccc(N4CCCN(C(N)=O)CC4)c3)n2)c1` [Example 78, 4-(3-{6-[(4-cyanopyridin-2-yl)amino]-4-cyclopropylpyridin-2-yl}phenyl)-1,4-diazepane-1-carboxamide hydrochloride] here?
Answer: 5 to 50 nM

Question: `N#Cc1ccnc(Nc2cc(C3CC3)cc(-c3cccc(CN4CCNC(=O)C4)c3)n2)c1` [Example 79, 2-[(4-cyclopropyl-6-{3-[(3-oxopiperazin-1-yl)methyl]phenyl}pyridin-2-yl)amino]pyridine-4-carbonitrile hydrochloride] was tested. Which IC50 did it give?
Answer: 5 to 50 nM

Question: How did the IC50 turn out when `N#Cc1ccnc(Nc2cc(C3CC3)cc(-c3ccc(CN4CCNC(=O)C4)cc3)n2)c1` [Example 80, 2-[(4-cyclopropyl-6-{4-[(3-oxopiperazin-1-yl)methyl]phenyl}pyridin-2-yl)amino]pyridine-4-carbonitrile hydrochloride] was run?
Answer: 50 to 500 nM

Question: Which IC50 does the source give for `N#Cc1ccnc(Nc2cc(C3CC3)cc(-c3cncc(CN4CCNCC4)c3)n2)c1` [Example 81, 2-{[4-cyclopropyl-5′-(piperazin-1-ylmethyl)-2,3′-bipyridin-6-yl]amino}pyridine-4-carbonitrile hydrochloride] here?
Answer: 5 to 50 nM

Question: `CC(=O)N1CCN(Cc2cncc(-c3cc(C4CC4)cc(Nc4cc(C#N)ccn4)n3)c2)CC1` [Example 82, 2-({5′-[(4-acetylpiperazin-1-yl)methyl]-4-cyclopropyl-2,3′-bipyridin-6-yl}amino)pyridine-4-carbonitrile hydrochloride] was tested. Which IC50 did it give?
Answer: 50 to 500 nM

Question: How did the IC50 turn out when `N#Cc1ccnc(Nc2cc(C3CC3)cc(-c3cncc(CN4CCN(C(N)=O)CC4)c3)n2)c1` [Example 83, 4-({6-[(4-cyanopyridin-2-yl)amino]-4-cyclopropyl-2,3′-bipyridin-5′-yl}methyl)piperazine-1-carboxamide hydrochloride] was run?
Answer: 5 to 50 nM

Question: How did the IC50 turn out when `N#Cc1ccnc(Nc2cc(C3CC3)cc(-c3cccc(CN4CCNCC4)c3)n2)c1` [Example 84, 2-({4-cyclopropyl-6-[3-(piperazin-1-ylmethyl)phenyl]pyridin-2-yl}amino)pyridine-4-carbonitrile hydrochloride] was run?
Answer: < 5 nM

Question: Which IC50 does the source give for `N#Cc1ccnc(Nc2cc(C3CC3)cc(-c3cncc(NC4CCNCC4)c3)n2)c1` [Example 85, 2-{[4-cyclopropyl-5′-(piperidin-4-ylamino)-2,3′-bipyridin-6-yl]amino}pyridine-4-carbonitrile hydrochloride] here?
Answer: < 5 nM

Question: `N#Cc1ccnc(Nc2cc(C3CC3)cc(-c3ccnc(CN4CCNCC4)c3)n2)c1` [Example 86, 2-{[4-cyclopropyl-2′-(piperazin-1-ylmethyl)-2,4′-bipyridin-6-yl]amino}pyridine-4-carbonitrile hydrochloride] was tested. Which IC50 did it give?
Answer: 5 to 50 nM

Question: For `N#Cc1ccnc(Nc2cc(C3CC3)cc(-c3ccnc(CN4CCNC(=O)C4)c3)n2)c1` [Example 87, 2-({4-cyclopropyl-2′-[(3-oxopiperazin-1-yl)methyl]-2,4′-bipyridin-6-yl}amino)pyridine-4-carbonitrile hydrochloride], which IC50 is on record?
Answer: 5 to 50 nM

Question: With `N#Cc1ccnc(Nc2cc(C3CC3)cc(-c3cncc(N[C@@H]4CCNC4)c3)n2)c1` [Example 88, 2-({4-cyclopropyl-5′-[(3R)-pyrrolidin-3-ylamino]-2,3′-bipyridin-6-yl}amino)pyridine-4-carbonitrile hydrochloride] as the molecule, how does the IC50 read?
Answer: < 5 nM

Question: With `N#Cc1ccnc(Nc2cc(C3CC3)cc(-c3cncc(N[C@H]4CCNC4)c3)n2)c1` [Example 89, 2-{(4-cyclopropyl-5′-[(3S)-pyrrolidin-3-ylamino]-2,3′-bipyridin-6-yl}amino)pyridine-4-carbonitrile hydrochloride] as the molecule, how does the IC50 read?
Answer: < 5 nM

Question: `N#Cc1ccnc(Nc2cc(C3CC3)cc(-c3cncc(NCCN)c3)n2)c1` [Example 90, 2-({5′-[(2-aminoethyl)amino]-4-cyclopropyl-2,3′-bipyridin-6-yl}amino)pyridine-4-carbonitrile hydrochloride] was tested. Which IC50 did it give?
Answer: < 5 nM

Question: For `N#Cc1ccnc(Nc2cc(C3CC3)cc(-c3cncc(COC4CCNCC4)c3)n2)c1` [Example 91, 2-({4-cyclopropyl-5′-[(piperidin-4-yloxy)methyl]-2,3′-bipyridin-6-yl}amino)pyridine-4-carbonitrile hydrochloride], which IC50 is on record?
Answer: < 5 nM

Question: For `CN(Cc1cncc(-c2cc(C3CC3)cc(Nc3cc(C#N)ccn3)n2)c1)C1CCNCC1` [Example 92, 2-[(4-cyclopropyl-5′-{[N-methyl-N-(piperidin-4-yl)amino]methyl}-2,3′-bipyridin-6-yl)amino]pyridine-4-carbonitrile hydrochloride], which IC50 is on record?
Answer: < 5 nM

Question: `N#Cc1ccnc(Nc2cc(C3CC3)cc(-c3cncc(CNC4CCNCC4)c3)n2)c1` [Example 93, 2-({4-cyclopropyl-5′-[(piperidin-4-ylamino)methyl]-2,3′-bipyridine-6-yl}amino)pyridine-4-carbonitrile hydrochloride] was tested. Which IC50 did it give?
Answer: 5 to 50 nM

Question: With `N#Cc1ccnc(Nc2cc(C3CC3)cc(-c3cncc(NCC4CCNCC4)c3)n2)c1` [Example 94, 2-({4-cyclopropyl-5′-[(piperidin-4-ylmethyl)amino]-2,3′-bipyridin-6-yl}amino)pyridine-4-carbonitrile hydrochloride] as the molecule, how does the IC50 read?
Answer: 5 to 50 nM

Question: `N#Cc1ccnc(Nc2cc(C3CC3)cc(-c3cncc(NC4CNC4)c3)n2)c1` [Example 95, 2-{[5′-(azetidin-3-ylamino)-4-cyclopropyl-2,3′-bipyridin-6-yl]amino}pyridine-4-carbonitrile hydrochloride] was tested. Which IC50 did it give?
Answer: < 5 nM

Question: With `N#Cc1ccnc(Nc2cc(C3CC3)cc(-c3cncc(OC4CCNCC4)c3)n2)c1` [Example 96, 2-([4-cyclopropyl-5′-(piperidin-4-yloxy)-2,3′-bipyridin-6-yl]amino)pyridine-4-carbonitrile hydrochloride] as the molecule, how does the IC50 read?
Answer: < 5 nM

Question: `N#Cc1ccnc(Nc2cc(C3CC3)cc(-c3cncc(NC[C@H]4CCNC4)c3)n2)c1` [Example 97, 2-[(4-cyclopropyl-5′-{[(3S)-pyrrolidin-3-ylmethyl]amino}-2,3′-bipyridin-6-yl)amino]pyridine-4-carbonitrile hydrochloride] was tested. Which IC50 did it give?
Answer: < 5 nM

Question: `N#Cc1ccnc(Nc2cc(C3CC3)cc(-c3cncc(N4CCCNCC4)c3)n2)c1` [Example 98, 2-{[4-cyclopropyl-5′-(1,4-diazepan-1-yl)-2,3′-bipyridin-6-yl]amino}pyridine-4-carbonitrile hydrochloride] was tested. Which IC50 did it give?
Answer: < 5 nM

Question: With `CN1CCC(Oc2cncc(-c3cc(C4CC4)cc(Nc4cc(C#N)ccn4)n3)c2)CC1` [Example 99, 2-({4-cyclopropyl-5′-[(1-methylpiperidin-4-yl)oxy]-2,3′-bipyridin-6-yl}amino)pyridine-4-carbonitrile hydrochloride] as the molecule, how does the IC50 read?
Answer: < 5 nM

Question: Which IC50 does the source give for `N#Cc1ccnc(Nc2cc(C3CC3)cc(-c3cncc(OCCN4CCNCC4)c3)n2)c1` [Example 100, 2-({4-cyclopropyl-5′-[2-(piperazin-1-yl)ethoxy]-2,3′-bipyridin-6-yl}amino)pyridine-4-carbonitrile hydrochloride] here?
Answer: 5 to 50 nM

Question: With `N#Cc1ccnc(Nc2cc(C3CC3)cc(-c3cncc(OCCN4CCOCC4)c3)n2)c1` [Example 101, 2-({4-cyclopropyl-5′-[2-(morpholin-4-yl)ethoxy]-2,3′-bipyridin-6-yl}amino)pyridine-4-carbonitrile hydrochloride] as the molecule, how does the IC50 read?
Answer: 50 to 500 nM

Question: `N#Cc1ccnc(Nc2cc(C3CC3)cc(-c3cncc(OC4CNC4)c3)n2)c1` [Example 102, 2-{[5′-(azetidin-3-yloxy)-4-cyclopropyl-2,3′-bipyridin-6-yl]amino}pyridine-4-carbonitrile hydrochloride] was tested. Which IC50 did it give?
Answer: 5 to 50 nM

Question: For `N#Cc1ccnc(Nc2cc(C3CC3)cc(-c3cncc(OC4CCN(CC(N)=O)CC4)c3)n2)c1` [Example 103, 2-[4-({6-[(4-cyanopyridin-2-yl)amino]-4-cyclopropyl-2,3′-bipyridin-5′-yl}oxy)-piperidin-1-yl]acetamide hydrochloride], which IC50 is on record?
Answer: 5 to 50 nM

Question: Which IC50 does the source give for `N#Cc1ccnc(Nc2cc(C3CC3)cc(-c3cncc(OC4CCN(C(N)=O)CC4)c3)n2)c1` [Example 104, 4-({6-[(4-cyanopyridin-2-yl)amino]-4-cyclopropyl-2,3′-pypyridin-5′-yl}oxy)piperidine-1-carboxamide hydrochloride] here?
Answer: 5 to 50 nM

Question: For `N#Cc1ccnc(Nc2cc(C3CC3)cc(-c3cnc(N4CCS(=O)(=O)CC4)nc3)n2)c1` [Example 105, 2-({4-cyclopropyl-6-[2-(1,1-dioxidethiomorpholin-4-yl)pyrimidin-5-yl]pyridin-2-yl}amino)pyridine-4-carbonitrile hydrochloride], which IC50 is on record?
Answer: 50 to 500 nM

Question: For `N#Cc1ccnc(Nc2cc(C3CC3)cc(-c3cnc(N4CCCN(C(N)=O)CC4)nc3)n2)c1` [Example 106, 4-(5-{6-[(4-cyanopyridin-2-yl)amino]-4-cyclopropylpyridin-2-yl}pyrimidin-2-yl)-1,4-diazepane-1-carboxamide hydrochloride], which IC50 is on record?
Answer: 5 to 50 nM
